According to US20240299542A1, “NATURAL KILLER CELLS ENGINEERED TO REDUCE OR ELIMINATE CBL-B AND USES THEREOF” (City of Hope, priority 2021, published 2024):

Key:
[1] = test system: Molm-13, MV4-11 or EOL-1 leukemia cell lines; assay type: cell-based, human
Procedure: (§1) FIGS. 3A-3E depict the results of a study showing that downregulation of Cbl-b enhances the cytotoxicity of primary human NK cells. (FIGS. 3A and 3B) Primary human NK cells transduced with Cbl-b siRNA or Scr siRNA for 24 h were stimulated without (FIG. 3A) or with (FIG. 3B) a low concentration of IL-15 (2 ng/ml) for 16 h, then co-cultured with ^51Cr labeled Molm-13, MV4-11 or EOL-1 leukemia cell lines for 4 h, followed by quantification of specific tumor cell lysis. Each experiment was repeated with 6 different normal donors. (FIG. 3C) qRT-PCR was performed to quantify the granzyme B (GZMB) mRNA levels (n=8 donors) in siRNA- and Scr siRNA-transduced primary human NK cells incubated without or with IL-15 (10 ng/ml) for 16 h. (FIG. 3D) The concentration of the granzyme B protein in the supernatants of Cbl-b siRNA- and Scr siRNA-transduced primary human NK cells incubated without (688.1 pg/ml vs 525.4 pg/ml; P=0.0232) or with IL-15 (10 ng/ml) for 24 h (8789 pg/ml vs 3397 pg/ml; P=0.0232) was measured by ELISA (n=8 donors). (FIG. 3E) The level of granzyme B protein in Cbl-b siRNA- and Scr siRNA-transduced primary human NK cells incubated without or with IL-15 (10 ng/ml) for 24 h was measured by immunoblot analysis. The data are representative of three experiments. Scr-scrambled; *P<0.05, **P<0.01, ***P<0.001, ****P<0.0001 by One-way or Two-way ANOVA; ns, not significant. […]

[2] = test system: granzyme B; assay: Granzyme B (GZMB) mRNA by qRT-PCR in siRNA-transduced NK cells; assay type: cell-based, human; conditions: without or with IL-15 (10 ng/ml) 16 h, vs Scr siRNA
Procedure: as §1

[3] = test system: granzyme B; assay: RNA-seq of siRNA-transduced primary human NK cells; assay type: cell-based; conditions: without or with IL-15 (10 ng/ml) 16 h, vs Scr siRNA
Procedure: (§2) FIGS. 4A-4D depict the results of a study showing that downregulation of Cbl-b increases IFN-γ secretion in IL-15-activated primary human NK cells. (FIG. 4A) RNAseq was conducted using primary human NK cells transduced with either Cbl-b siRNA or Scr siRNA without or with incubation in IL-15 (10 ng/ml) for 16 h (4 donors for each group). […] (FIG. 4B) qRT-PCR was performed to quantify the mRNA levels of IFN-γ (n=6 donors) after IL-15 (10 ng/ml) 6 h stimulation. (FIG. 4C) The percentage of intracellular IFN-γ+ cells in un-transduced NK cells or those transduced with Cbl-b siRNA or Scr siRNA, each activated with IL-15 (10 ng/ml) for 24 h (11.5% vs 4.338%; P=0.0008; n=5 donors). (FIG. 4D) Supernatants were collected after IL-15 (10 ng/ml) for 24 h and IFN-γ concentrations measured by ELISA (18115 pg/ml vs 882.5 pg/ml; P=0.0099; n=7 donors). Scr-scrambled; *P<0.05, **P<0.01, ***P<0.001 by Student's two-tailed paired t-test or One-way ANOVA; ns, not significant. Data presented as mean±SEM.
To further explore how Cbl-b regulates the functions of primary human NK cells, we performed RNA-seq analyses using enriched primary NK cells from healthy donors transduced with Cbl-b siRNA or Scr siRNA without or with IL-15 treatment for 16 h (n=4 in each group). […]

[4] = test system: IFN-γ; assay: IFN-γ mRNA by qRT-PCR in IL-15-activated siRNA-transduced NK cells; assay type: cell-based, human; conditions: IL-15 (10 ng/ml) 6 h, vs Scr siRNA
Procedure: as §2
Reverse transcription-polymerase chain reaction. Total RNA was isolated from primary NK cells with the RNeasy Mini Kit (Qiagen). Complementary DNA (cDNA) was generated by Moloney murine leukemia virus (M-MLV) reverse transcriptase (Invitrogen) and amplified by qPCR with SYBR Green PCR Master Mix (Applied Biosystems) and gene-specific primers. […]

[5] = test system: IFN-γ; assay: Intracellular IFN-γ flow cytometry of siRNA-transduced NK cells; assay type: cell-based, human
Procedure: as §2
FIGS. 9B-9D show intracellular flow cytometric analysis of CD56+ primary human NK cells transduced with Scr siRNA or transduced with Cbl-b siRNA, incubated with IL-18 (10 ng/ml), IL-12 (10 ng/ml) or IL-18 (10 ng/ml) plus IL-12 (10 ng/ml) for 24 h. Scr, scrambled; *P<0.05, ns, not significant. Data are presented as mean±SEM.
Flow cytometry. To determine protein cell surface expression via flow cytometry, cells were stained with monoclonal antibodies at room temperature for 20 minutes and washed with FACS buffer prior to analysis using a Fortessa X-20 flow cytometer (BD Biosciences). For IFN-γ intracellular flow cytometric analysis, […] GolgiPlug (BD Biosciences) was added for 4 h before cell harvest; cells were then permeabilized and fixed using a Cytofix/Cytoperm Fixation/Permeabilization Solution Kit (BD Biosciences), followed by analysis with a Fortessa X-20 flow cytometer. Intracellular flow cytometric analysis of Mertk was performed similarly except that GolgiPlug was not added. Data was analyzed by using Flowjo V10 software (Tree Star, Ashland, OR, USA).
To further explore how Cbl-b regulates the functions of primary human NK cells, we performed RNA-seq analyses using enriched primary NK cells from healthy donors transduced with Cbl-b siRNA or Scr siRNA without or with IL-15 treatment for 16 h (n=4 in each group). […] The intracellular results were supported by assessment IFN-γ secretion into the supernatant, in that IL-15-activated primary human NK cells transduced with Cbl-b siRNA expressed 10-fold higher levels of IFN-γ compared to NK cells transduced with Scr siRNA (FIG. 4D).

With “Cbl-b siRNA: Cbl-b-specific Accell siRNA (Dharmacon), SEQ ID NO:1, CCUUCAUGUUCAGAUGGUU (Accell modified siRNA, pattern not given here)” the “cytotoxicity (specific lysis) without IL-15” value [1] was “significant increase in cytotoxicity against three of the four AML cell lines”, the “Granzyme B mRNA” value [2] was “significantly increased” and the “transcriptional level of granzyme B (RNA-seq)” value [3] was “increased”. For the same substance, the “IFN-γ mRNA” value [4] was “increased dramatically”, the “percentage of IFN-γ+ fraction relative to Scr siRNA” value ([5]; IL-12 (10 ng/ml) or IL-12 plus IL-18 (10 ng/ml each) 24 h) was “no significant difference” and the “percentage of intracellular IFN-γ+ cells” value ([5]; IL-15 (10 ng/ml) 24 h, n=5 donors) was 11.5%. The “intracellular IFN-γ level relative to Scr siRNA” value ([5]; IL-15-activated) was 2.5 fold and the “percentage of IFN-γ+ fraction relative to Scr siRNA” value ([5]; IL-18 (10 ng/ml) 24 h) was 2.5 fold.
